Our source for the IC50 values is patent US12240862B2, “Inhibitors of peptidylarginine deiminases” (Gilead Sciences, Inc., priority 2020, dated 2025).

pIC50: −log10 of the molar value.

The target in this experiment is T1, human PAD4 (Homo sapiens, UniProt Q9UM07).
T1 construct: human PAD4 (NM_012387), A2P663, was PCR amplified; His-SUMO (N, cleaved yes); made in house; host or cells: E. coli BL21(DE3)
T1 sequence (Q9UM07 2-663): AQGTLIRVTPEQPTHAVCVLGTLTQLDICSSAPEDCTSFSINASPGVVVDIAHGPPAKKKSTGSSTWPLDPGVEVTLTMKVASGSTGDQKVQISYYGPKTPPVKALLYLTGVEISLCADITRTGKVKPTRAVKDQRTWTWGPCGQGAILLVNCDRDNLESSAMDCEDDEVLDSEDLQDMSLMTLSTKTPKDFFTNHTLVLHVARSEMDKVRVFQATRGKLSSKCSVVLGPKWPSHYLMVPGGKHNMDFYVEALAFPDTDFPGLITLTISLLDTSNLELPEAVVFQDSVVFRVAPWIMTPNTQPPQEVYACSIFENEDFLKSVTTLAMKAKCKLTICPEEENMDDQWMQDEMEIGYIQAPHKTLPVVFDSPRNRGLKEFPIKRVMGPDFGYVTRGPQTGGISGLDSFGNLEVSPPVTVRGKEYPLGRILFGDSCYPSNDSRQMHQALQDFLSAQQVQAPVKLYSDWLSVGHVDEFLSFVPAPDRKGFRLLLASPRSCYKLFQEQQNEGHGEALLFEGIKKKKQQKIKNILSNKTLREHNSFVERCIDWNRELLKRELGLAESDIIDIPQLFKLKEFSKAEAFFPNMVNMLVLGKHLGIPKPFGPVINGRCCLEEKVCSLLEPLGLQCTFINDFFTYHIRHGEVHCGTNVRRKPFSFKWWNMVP
The experiment is described as follows: In vitro PAD4 BAEE biochemical assay. The following applies: human PAD4, BAEE substrate; 5 nM PAD4, 2 mM calcium chloride, 3 mM BAEE; geometric mean of multiple experiments. Summed up: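 Tag-free recombinant hPAD4 (5 nM), 2 mM CaCl2, 3 mM BAEE, 50 mM MOPS pH 7.6, 2 mM DTT; 30 min compound preincubation, 2 h reaction, all 25 °C. EDTA quench; ammonia read via o-phthalaldehyde amine coupling, 1 h.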
The pIC50 is −log10 of the IC50, conventionally taken in molar units. For `COc1cc(C(=O)N2[C@H]3CC[C@@H]2[C@H](N)C3)cc2nc(-c3cc4ccc([C@@H](C)NC(=O)c5ccccc5C)nc4n3CC3CC3)c(C)n12` [Example 121, ~{N}-[(1~{R})-1-[2-[7-[(1~{R},2~{R},4~{S})-2-amino-7-azabicyclo[2.2.1]heptane-7-carbonyl]-5-methoxy-3-methylimidazo [1,2-a]pyridin-2-yl]-1-(cyclopropylmethyl)pyrrolo [2,3-b]pyridin-6-yl]ethyl]-2-methylbenzamide], the pIC50 is 6.97. Regarding `COc1cc(C(=O)N2CCC[C@@H](N)C2)cc2nc(-c3cc4ccc(-c5cccnc5C)nc4n3CC3CC3)c(C)n12` [Example 604, [(3~{R})-3-aminopiperidin-1-yl]-[2-[1-(cyclopropylmethyl)-6-(2-methylpyridin-3-yl)pyrrolo[2,3-b]pyridin-2-yl]-5-methoxy-3-methylimidazo[1,2-a]pyridin-7-yl]methanone], the pIC50 was 6.37. Regarding `COc1cc(C(=O)N2[C@H]3CC[C@@H]2[C@H](N)C3)cc2nc(-c3cc4ccc([C@@H](C)NC(=O)c5cocn5)nc4n3CC3CC3)c(C)n12` [Example 105, ~{N}-[(1~{R})-1-[2-[7-[(1~{R},2~{R},4~{S})-2-amino-7-azabicyclo[2.2.1]heptane-7-carbonyl]-5-methoxy-3-methylimidazo [1,2-a]pyridin-2-yl]-1-(cyclopropylmethyl)pyrrolo [2,3-b]pyridin-6-yl]ethyl]-1,3-oxazole-4-carboxamide], the pIC50 is 7.25. As to `COc1cc(C(=O)N2CCC[C@@H](N)C2)cc2nc(-c3cc4ccc([C@@H](C)NC(=O)OC5CCCC5)nc4n3CC3CC3)c(C)n12` [Example 255, cyclopentyl~{N}-[(1~{R})-1-[2-[7-[(3~{R})-3-aminopiperidine-1-carbonyl]-5-methoxy-3-methylimidazo[1,2-a]pyridin-2-yl]-1-(cyclopropylmethyl)pyrrolo [2,3-b]pyridin-6-yl]ethyl] carbamate], the negative logarithm of the IC50 (pIC50) was 6.54. `CCc1c(-c2cc3ccc(N(C(F)F)S(C)(=O)=O)nc3n2CC2CC2)nc2cc(C(=O)N3CC[C@H](O)[C@H](N)C3)cc(OC)n12` [Example 404, ~{N}-[2-[7-[(3~{R},4~{S})-3-amino-4-hydroxypiperidine-1-carbonyl]-3-ethyl-5-methoxyimidazo[1,2-a]pyridin-2-yl]-1-(cyclopropylmethyl)pyrrolo [2,3-b]pyridin-6-yl]-~{N}-(difluoromethyl) methanesulfonamide]: the pIC50 was 4.97.

Take `COc1cc(C(=O)N2[C@H]3CC[C@@H]2[C@H](N)C3)cc2nc(-c3cc4ccc(N5CCOc6ccccc6S5(=O)=O)nc4n3CC3CC3)c(C)n12` [Example 460, [(1~{R},2~{R},4~{S})-2-amino-7-azabicyclo [2.2.1]heptan-7-yl]-[2-[1-(cyclopropylmethyl)-6-(1,1-dioxo-3,4-dihydro-5,1$l^6,2-benzoxathiazepin-2-yl)pyrrolo[2,3-b]pyridin-2-yl]-5-methoxy-3-methylimidazo[1,2-a]pyridin-7-yl]methanone]: the pIC50 is 7.00. `CNC(=O)CC(C)c1ccc2cc(-c3nc4cc(C(=O)N5[C@H]6CC[C@@H]5[C@H](N)C6)cc(OC)n4c3C)n(CC3CC3)c2n1` (stereo partly shown) [Example 524, 3-[2-[7-[(1~{R},2~{R}, 4~{S})-2-amino-7-azabicyclo[2.2.1]heptane-7-carbonyl]-5-methoxy-3-methylimidazo[1,2-a]pyridin-2-yl]-1-(cyclopropylmethyl)pyrrolo [2,3-b]pyridin-6-yl]-~{N}-methylbutanamide]: the pIC50 is 7.10. As to `COc1cc(C(=O)N2[C@H]3CC[C@@H]2[C@H](N)C3)cc2nc(-c3cc4ccc([C@@H](C)NC(=O)C(C)(C)CO)nc4n3CC3CC3)c(C3CC3)n12` [Example 86, ~{N}-[(1~{R})-1-[2-[7-[(1~{R},2~{R},4~{S})-2-amino-7-azabicyclo[2.2.1]heptane-7-carbonyl]-3-cyclopropyl-5-methoxyimidazo [1,2-a]pyridin-2-yl]-1-(cyclopropylmethyl)pyrrolo [2,3-b]pyridin-6-yl]ethyl]-3-hydroxy-2,2-dimethylpropanamide], the negative logarithm of the IC50 (pIC50) was 7.24.

For `CCC1CC[C@@H]2CCN(C(=O)c3cc(OC)n4c(C)c(-c5cc6ccc([C@@H](C)NC(=O)C78CC(F)(C7)C8)nc6n5CC5CC5)nc4c3)C[C@@H]2N1` (stereo partly shown) [Example 12, ~{N}-[(1~{R})-1-[2-[7-[(4~{a}~{R}, 8~{a}~{R})-2-ethyl-2,3,4,4~{a}, 5,6,8,8~{a}-octahydro-1~{H}-1,7-naphthyridine-7-carbonyl]-5-methoxy-3-methylimidazo[1,2-a]pyridin-2-yl]-1-(cyclopropylmethyl)pyrrolo[2,3-b]pyridin-6-yl]ethyl]-3-fluorobicyclo[1.1.1] pentane-1-carboxamide], the negative logarithm of the IC50 (pIC50) was 4.54. As for `COc1cc(C(=O)N2CCC[C@@H](N)C2)cc2nc(-c3cc4ccc(-c5cccnc5-c5ccccc5)nc4n3CC3CC3)c(C)n12` [Example 607, [(3~{R})-3-aminopiperidin-1-yl]-[2-[1-(cyclopropylmethyl)-6-(2-phenylpyridin-3-yl)pyrrolo [2,3-b]pyridin-2-yl]-5-methoxy-3-methylimidazo[1,2-a]pyridin-7-yl]methanone], the figure is 6.46. As for `COc1cc(C(=O)N2[C@H]3CC[C@@H]2[C@H](N)C3)cc2nc(-c3cc4ccc(N5CCN(Cc6cccnc6)CCS5(=O)=O)nc4n3CC3CC3)c(C)n12` [Example 442, [(1~{R},2~{R},4~{S})-2-amino-7-azabicyclo [2.2.1]heptan-7-yl]-[2-[1-(cyclopropylmethyl)-6-[1,1-dioxo-5-(pyridin-3-ylmethyl)-1,2,5-thiadiazepan-2-yl]pyrrolo [2,3-b]pyridin-2-yl]-5-methoxy-3-methylimidazo [1,2-a]pyridin-7-yl] methanone], the figure is 7.39; as for `COc1cc(C(=O)N2CC[C@@H]3CCNC[C@@H]32)cc2nc(-c3cc4ccc(N(C(F)F)S(C)(=O)=O)nc4n3CC3CC3)c(C)n12` [Example 321, ~{N}-[2-[7-[(3~{a}~{S},7~{a}~{R})-2,3,3~{a},4,5,6,7,7~{a}-octahydropyrrolo[2,3-c]pyridine-1-carbonyl]-5-methoxy-3-methylimidazo[1,2-a]pyridin-2-yl]-1-(cyclopropylmethyl)pyrrolo [2,3-b]pyridin-6-yl]-~{N}-(difluoromethyl) methanesulfonamide], 6.56; as for `COc1cc(C(=O)N2CC[C@@H]3CCNC[C@H]32)cc2nc(-c3cc4ccc(N(C(F)F)S(C)(=O)=O)nc4n3CC3CC3)c(C)n12` [Example 418, ~{N}-[2-[7-[(3~{a}~{S}, 7~{a}~{S})-2,3,3~{a},4,5,6,7,7~{a}-octahydropyrrolo[2,3-c]pyridine-1-carbonyl]-5-methoxy-3-methylimidazo[1,2-a]pyridin-2-yl]-1-(cyclopropylmethyl)pyrrolo [2,3-b]pyridin-6-yl]-~{N}-(difluoromethyl) methanesulfonamide], 6.82.

Take `COc1cc(C(=O)N2[C@H]3CC[C@@H]2[C@H](N)C3)cc2nc(-c3cc4ccc(N5c6ccccc6CCS5(=O)=O)nc4n3CC3CC3)c(C)n12` [Example 468, [(1~{R},2~{R},4~{S})-2-amino-7-azabicyclo [2.2.1]heptan-7-yl]-[2-[1-(cyclopropylmethyl)-6-(2,2-dioxo-3,4-dihydro-2$l^6,1-benzothiazin-1-yl)pyrrolo[2,3-b]pyridin-2-yl]-5-methoxy-3-methylimidazo[1,2-a]pyridin-7-yl]methanone]: the pIC50 is 6.62. As to `Cc1c(-c2cc3ccc(N(C(F)F)S(C)(=O)=O)nc3n2CC2CC2)nc2cc(C(=O)N3CCC[C@@H](N)C3)cc([S+](C)[O-])n12` (stereo partly shown) [Example 424, ~{N}-[2-[7-[(3~{R})-3-aminopiperidine-1-carbonyl]-3-methyl-5-methylsulfinylimidazo[1,2-a]pyridin-2-yl]-1-(cyclopropylmethyl)pyrrolo [2,3-b]pyridin-6-yl]-~{N}-(difluoromethyl) methanesulfonamide], the negative logarithm of the IC50 (pIC50) is 4.74. Turning to `COc1cc(C(=O)N2[C@H]3CC[C@@H]2[C@H](N)C3)cc2nc(-c3cc4ccc([C@@H](C)NC(=O)c5ccncc5F)nc4n3CC3CC3)c(C)n12` [Example 52], the negative logarithm of the IC50 (pIC50) was 7.50. Then `COc1cc(C(=O)N2[C@H]3CC[C@@H]2[C@H](N)C3)cc2nc(-c3cc4ccc([C@@H](C)NC(=O)c5cnco5)nc4n3CC3CC3)c(C)n12` [Example 117, ~{N}-[(1~{R})-1-[2-[7-[(1~{R},2~{R},4~{S})-2-amino-7-azabicyclo[2.2.1]heptane-7-carbonyl]-5-methoxy-3-methylimidazo [1,2-a]pyridin-2-yl]-1-(cyclopropylmethyl)pyrrolo [2,3-b]pyridin-6-yl]ethyl]-1,3-oxazole-5-carboxamide], with 7.48; and `COc1cc(C(=O)N2[C@H]3CC[C@@H]2[C@H](N)C3)cc2nc(-c3cc4ccc(N(C)S(C)(=O)=O)nc4n3CC3CC3)c(C)n12` [Example 476, ~{N}-[2-[7-[(1~{R}, 2~{R},4~{S})-2-amino-7-azabicyclo[2.2.1]heptane-7-carbonyl]-5-methoxy-3-methylimidazo[1,2-a]pyridin-2-yl]-1-(cyclopropylmethyl)pyrrolo[2,3-b]pyridin-6-yl]-~{N}-methylmethanesulfonamide], with 7.33. In the case of `COc1cc(C(=O)N2[C@H]3CC[C@@H]2[C@H](N)C3)cc2nc(-c3cc4ccc([C@@H](C)Nc5ncc(F)cn5)nc4n3CC3CC3)c(C)n12` [Example 264, [(1~{R},2~{R},4~{S})-2-amino-7-azabicyclo [2.2.1]heptan-7-yl]-[2-[1-(cyclopropylmethyl)-6-[(1~{R})-1-[(5-fluoropyrimidin-2-yl)amino]ethyl]pyrrolo[2,3-b]pyridin-2-yl]-5-methoxy-3-methylimidazo[1,2-a]pyridin-7-yl]methanone], the pIC50 is 6.87.
